Among the data in patent publication US10604555B2, “GIP derivatives and uses thereof” (priority 2018, dated 2020) are EC50 values, retold here.

*1 amine or outer side, *2 acyl side, *3 side chain or, on linkers, in order; H or OH if unused. Where a SMILES comes first, the peptide text is derived from it. Side-chain parts run from the residue outwards. [ ]: non-standard residue; d: D form. The star is where a group is joined. C18 diacid = O=C(O)CCCCCCCCCCCCCCCCC(=O)*; γGlu = O=C(O)[C@H](CCC(=O)[*:2])N[*:1]; Nle = CCCC[C@H](N)C(=O)O; Aib = CC(C)(N)C(=O)O

In this experiment the target is T1, human GIP receptor (Homo sapiens, UniProt P48546).
T1 construct: expressed in transfected cells; host or cells: BHK (parent line BHKTS13), BHK CRE luc2P hGIPR clone #5
T1 sequence (P48546 22-466): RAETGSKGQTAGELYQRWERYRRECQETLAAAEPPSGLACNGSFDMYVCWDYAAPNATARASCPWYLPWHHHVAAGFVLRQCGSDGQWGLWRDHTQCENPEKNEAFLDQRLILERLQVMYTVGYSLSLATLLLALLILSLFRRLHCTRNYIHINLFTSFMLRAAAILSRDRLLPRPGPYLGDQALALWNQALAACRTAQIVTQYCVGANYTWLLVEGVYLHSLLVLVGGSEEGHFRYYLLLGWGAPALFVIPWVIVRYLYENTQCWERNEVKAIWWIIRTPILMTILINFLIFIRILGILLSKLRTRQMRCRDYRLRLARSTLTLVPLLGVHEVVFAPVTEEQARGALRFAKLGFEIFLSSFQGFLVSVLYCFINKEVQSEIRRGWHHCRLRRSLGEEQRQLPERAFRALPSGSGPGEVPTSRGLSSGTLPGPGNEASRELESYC
Nature of the experiment: In vitro potency (CRE luciferase; whole cells), BHK CRE luc2P hGIPR. In kind it is cell-based. The settings on record: 0.2% HSA. As for the experimental part:
In Vitro Potency (CRE Luciferase; Whole Cells)
The in vitro potency is the measure of human GIP, GLP-1 or glucagon receptor activation, respectively, in a whole cell assay.
In vitro potency was determined by measuring the response of the human GIP, GLP-1 or glucagon receptor in a reporter gene assay in individual cell lines. […] When the respective receptor is activated it results in the production of cAMP, which in turn results in the luciferase protein being expressed. When assay incubation is completed the luciferase substrate (luciferin) is added and the enzyme converts luciferin to oxyluciferin to produce bioluminescence. The luminescence is measured as the readout for the assay.
The cells were derived from a clone containing the CRE luciferase element and were established by further transfection with the respective receptor to obtain the current clone.
The cells were cultured at 5% CO2 in Cell Culture Medium. They were aliquoted and stored in liquid nitrogen. The cells were kept in passage and were seeded out the day before each assay.
The Assay Buffer consisted of 1% ovalbumin and 0.1% Pluronic F-68 in Assay Medium with the addition of human serum albumin at twice the indicated concentrations.
1) Cells were plated at 5000 cells/well and incubated overnight.
2) Cells were washed three times in PBS.
3) Assay Medium (50 μl aliquot) with or without serum albumin was added to each well in the assay plate.
4) Stocks of the test compounds and reference compounds were diluted to a concentration of 0.2 μM in Assay Buffer. […] 8) The cells were washed three times with PBS plus some liquid in each well. 9) A 100 μl aliquot of steadylite plus reagent was added to each well of the assay plate (reagent was light sensitive). 10) Each assay plate was covered with aluminum foil to protect it from light and shaken for 30 min at room temperature. 11) Each assay plate was read in a microtiter plate reader. Calculations and Results
The data from the microtiter plate reader was transferred to GraphPad Prism software. The software performs a non-linear regression (log(agonist) vs response).
A minimum of two replicates was measured for each sample. The reported values are averages of the replicates.
As for `CCCC[C@H](NC(=O)[C@H](C)NC(=O)[C@@H](NC(=O)[C@H](CO)NC(=O)[C@H](Cc1ccc(O)cc1)NC(=O)[C@H](CC(=O)O)NC(=O)[C@H](CO)NC(=O)[C@@H](NC(=O)[C@H](Cc1ccccc1)NC(=O)[C@@H](NC(=O)CNC(=O)[C@H](CCC(=O)O)NC(=O)C(C)(C)NC(=O)[C@@H](N)Cc1ccc(O)cc1)[C@@H](C)O)[C@@H](C)CC)[C@@H](C)CC)C(=O)N[C@@H](CC(=O)O)C(=O)N[C@@H](CCCCN)C(=O)N[C@H](C(=O)N[C@@H](CCCNC(=N)N)C(=O)N[C@@H](CCC(N)=O)C(=O)N[C@@H](CCC(N)=O)C(=O)N[C@@H](CC(=O)O)C(=O)N[C@@H](Cc1ccccc1)C(=O)N[C@H](C(=O)N[C@@H](CCCCNC(=O)CC[C@H](NC(=O)CC[C@H](NC(=O)CC[C@H](NC(=O)CCCCCCCCCCCCCCCCC(=O)O)C(=O)O)C(=O)O)C(=O)O)C(=O)N[C@@H](Cc1c[nH]c2ccccc12)C(=O)N[C@@H](CC(C)C)C(=O)N[C@@H](CC(C)C)C(=O)N[C@@H](C)C(=O)N[C@@H](CCC(N)=O)C(=O)N[C@@H](CCCCN)C(=O)NCC(=O)N[C@@H](CCCCN)C(=O)N[C@@H](CCC(=O)O)C(=O)N[C@@H](CC(N)=O)C(=O)N[C@@H](CC(=O)O)C(=O)N[C@@H](Cc1c[nH]c2ccccc12)C(=O)N[C@@H](CCCCN)C(=O)N[C@@H](Cc1c[nH]cn1)C(=O)N[C@@H](CC(N)=O)C(=O)N[C@H](C(=O)N[C@H](C(=O)N[C@@H](CCC(N)=O)C(=O)O)[C@@H](C)O)[C@@H](C)CC)C(C)C)[C@@H](C)CC` [Compound 34, N{Epsilon-24}-[(4S)-4-carboxy-4-[[(4S)-4-carboxy-4-[[(4S)-4-carboxy-4-(17-carboxyheptadecanoylamino)butanoyl]amino]butanoyl]amino]butanoyl]-[Aib2,Nle14,Arg18,Lys24,Glu33]-hGIP], the EC50 (in general, the concentration needed to bring the measured effect to its halfway point) was 20.2 pM.
In turn, `CCCC[C@H](NC(=O)[C@H](C)NC(=O)[C@@H](NC(=O)[C@H](CO)NC(=O)[C@H](Cc1ccc(O)cc1)NC(=O)[C@H](CC(=O)O)NC(=O)[C@H](CO)NC(=O)[C@@H](NC(=O)[C@H](Cc1ccccc1)NC(=O)[C@@H](NC(=O)CNC(=O)[C@H](CCC(=O)O)NC(=O)C(C)(C)NC(=O)[C@@H](N)Cc1ccc(O)cc1)[C@@H](C)O)[C@@H](C)CC)[C@@H](C)CC)C(=O)N[C@@H](CC(=O)O)C(=O)N[C@@H](CCCCN)C(=O)N[C@H](C(=O)N[C@@H](Cc1c[nH]cn1)C(=O)N[C@@H](CCC(N)=O)C(=O)N[C@@H](CCC(=O)O)C(=O)N[C@@H](CC(=O)O)C(=O)N[C@@H](Cc1ccccc1)C(=O)N[C@H](C(=O)N[C@@H](CCCCNC(=O)CC[C@H](NC(=O)CC[C@H](NC(=O)CC[C@H](NC(=O)CC[C@H](NC(=O)CCCCCCCCCCCCCCCCC(=O)O)C(=O)O)C(=O)O)C(=O)O)C(=O)O)C(=O)N[C@@H](Cc1c[nH]c2ccccc12)C(=O)N[C@@H](CC(C)C)C(=O)N[C@@H](CC(C)C)C(=O)N[C@@H](C)C(=O)N[C@@H](CCC(N)=O)C(=O)N[C@@H](CCCCN)C(=O)NCC(=O)O)C(C)C)[C@@H](C)CC` [Compound 20, N{Epsilon-24}-[(4S)-4-carboxy-4-[[(4S)-4-carboxy-4-[[(4S)-4-carboxy-4-[[(4S)-4-carboxy-4-(17-carboxyheptadecanoylamino)butanoyl]amino]butanoyl]amino]butanoyl]-amino]butanoyl]-[Aib2,Nle14,Glu20,Lys24]-hGIP(1-31)] (H-Y[Aib]EGTFISDYSIA[Nle]DKIHQEDFVK([γGlu-γGlu-γGlu-γGlu-C18 diacid])WLLAQKG-OH; N-terminus and C-terminus assumed) returned an EC50 of 158 pM.
`CCCC[C@H](NC(=O)[C@H](C)NC(=O)[C@@H](NC(=O)[C@H](CO)NC(=O)[C@H](Cc1ccc(O)cc1)NC(=O)[C@H](CC(=O)O)NC(=O)[C@H](CO)NC(=O)[C@@H](NC(=O)[C@H](Cc1ccccc1)NC(=O)[C@@H](NC(=O)CNC(=O)[C@H](CCC(=O)O)NC(=O)C(C)(C)NC(=O)[C@@H](N)Cc1ccc(O)cc1)[C@@H](C)O)[C@@H](C)CC)[C@@H](C)CC)C(=O)N[C@@H](CC(=O)O)C(=O)N[C@@H](CCCCN)C(=O)N[C@H](C(=O)N[C@@H](Cc1c[nH]cn1)C(=O)N[C@@H](CCC(N)=O)C(=O)N[C@@H](CCC(N)=O)C(=O)N[C@@H](CC(=O)O)C(=O)N[C@@H](Cc1ccccc1)C(=O)N[C@H](C(=O)N[C@@H](CCCCNC(=O)CC[C@H](NC(=O)CC[C@H](NC(=O)CC[C@H](NC(=O)CCCCCCCCCCCCCCCCC(=O)O)C(=O)O)C(=O)O)C(=O)O)C(=O)N[C@@H](Cc1c[nH]c2ccccc12)C(=O)N[C@@H](CC(C)C)C(=O)N[C@@H](CC(C)C)C(=O)N[C@@H](C)C(=O)N[C@@H](CCC(N)=O)C(=O)N[C@@H](CCCCN)C(=O)NCC(=O)O)C(C)C)[C@@H](C)CC` [Compound 2, N{Epsilon-24}-[(4S)-4-carboxy-4-[[(4S)-4-carboxy-4-[[(4S)-4-carboxy-4-(17-carboxyheptadecanoylamino)butanoyl]amino]butanoyl]amino]butanoyl]-[Aib2,Nle14,Lys24]-hGIP(1-31)] (H-Y[Aib]EGTFISDYSIA[Nle]DKIHQQDFVK([γGlu-γGlu-γGlu-C18 diacid])WLLAQKG-OH): it took 49.9 pM to reach a half-maximal effect (EC50).
The same measure for `CCCC[C@H](NC(=O)[C@H](C)NC(=O)[C@@H](NC(=O)[C@H](CO)NC(=O)[C@H](Cc1ccc(O)cc1)NC(=O)[C@H](CC(=O)O)NC(=O)[C@H](CO)NC(=O)[C@@H](NC(=O)[C@H](Cc1ccccc1)NC(=O)[C@@H](NC(=O)CNC(=O)[C@H](CCC(=O)O)NC(=O)[C@H](C)NC(=O)[C@@H](Cc1ccc(O)cc1)NC(C)=O)[C@@H](C)O)[C@@H](C)CC)[C@@H](C)CC)C(=O)N[C@@H](CC(=O)O)C(=O)N[C@@H](CCCCN)C(=O)N[C@H](C(=O)N[C@@H](CCCNC(=N)N)C(=O)N[C@@H](CCC(N)=O)C(=O)N[C@@H](CCC(=O)O)C(=O)N[C@@H](CC(=O)O)C(=O)N[C@@H](Cc1ccccc1)C(=O)N[C@H](C(=O)N[C@@H](CCCCNC(=O)COCCOCCNC(=O)COCCOCCNC(=O)CC[C@H](NC(=O)CCCCCCCCCCCCCCCCC(=O)O)C(=O)O)C(=O)N[C@@H](Cc1c[nH]c2ccccc12)C(=O)N[C@@H](CC(C)C)C(=O)N[C@@H](CC(C)C)C(=O)N[C@@H](C)C(=O)N[C@@H](CCC(N)=O)C(=O)N[C@@H](CCCCN)C(=O)NCC(=O)O)C(C)C)[C@@H](C)CC` [Compound 16, N{1}-acetyl,N{Epsilon-24}-[2-[2-[2-[[2-[2-[2-[[(4S)-4-carboxy-4-(17-carboxy-heptadecanoylamino)butanoyl]amino]ethoxy]ethoxy]acetyl]amino]ethoxy]ethoxy]acetyl]-[D-Tyr1,Nle14,Arg18,Glu20,Lys24]-hGIP(1-31)]: 25 pM; for `CCCC[C@H](NC(=O)[C@H](C)NC(=O)[C@@H](NC(=O)[C@H](CO)NC(=O)[C@H](Cc1ccc(O)cc1)NC(=O)[C@H](CC(=O)O)NC(=O)[C@H](CO)NC(=O)[C@@H](NC(=O)[C@H](Cc1ccccc1)NC(=O)[C@@H](NC(=O)CNC(=O)[C@H](CCC(=O)O)NC(=O)C(C)(C)NC(=O)[C@@H](N)Cc1ccc(O)cc1)[C@@H](C)O)[C@@H](C)CC)[C@@H](C)CC)C(=O)N[C@@H](CC(=O)O)C(=O)N[C@@H](CCCCN)C(=O)N[C@H](C(=O)N[C@@H](CCCNC(=N)N)C(=O)N[C@@H](CCC(N)=O)C(=O)N[C@@H](CCC(=O)O)C(=O)N[C@@H](CC(=O)O)C(=O)N[C@@H](Cc1ccccc1)C(=O)N[C@H](C(=O)N[C@@H](CCCCNC(=O)CC[C@H](NC(=O)CC[C@H](NC(=O)CC[C@H](NC(=O)CCCCCCCCCCCCCCCCC(=O)O)C(=O)O)C(=O)O)C(=O)O)C(=O)N[C@@H](Cc1c[nH]c2ccccc12)C(=O)N[C@@H](CC(C)C)C(=O)N[C@@H](CC(C)C)C(=O)N[C@@H](C)C(=O)N[C@@H](CCC(N)=O)C(=O)N[C@@H](CCCCN)C(=O)NCC(=O)O)C(C)C)[C@@H](C)CC` [Compound 9, N{Epsilon-24}-[(4S)-4-carboxy-4-[[(4S)-4-carboxy-4-[[(4S)-4-carboxy-4-(17-carboxyheptadecanoylamino)butanoyl]amino]butanoyl]amino]butanoyl]-[Aib2,Nle14,Arg18,Glu20,Lys24]-hGIP(1-31)] (H-Y[Aib]EGTFISDYSIA[Nle]DKIRQEDFVK([γGlu-γGlu-γGlu-C18 diacid])WLLAQKG-OH; N-terminus and C-terminus assumed): 62.9 pM.
